The text below walks through data of patent US7067633B2, “Targeting cellular entry, cell survival, and pathogenicity by dynein light chain 1/PIN in human cells” (Board of Regents, The University of Texas System, priority 2003, dated 2006).

In assay [1] the test system is DLC1-ER interaction. Briefly: Coimmunoprecipitation of DLC1 with ER. The format is cell-based, human. How it is done: In vitro-translated ^35ER were incubated with GST-DLC1, and analyzed by SDS-PAGE and autoradiography. FIG. 13B: Identification of ER domains that interact with DLC1. GST-ER fusion proteins containing different deletion constructs were incubated with in vitro-translated 35S-DLC1 (aa 1-89), and binding was analyzed by GST pull-down assay. FIG. 13C: Mapping of the ER-binding region in DLC1. GST-fusions of various DLC1 deletion constructs were incubated with in vitro-translated ^35S-ER, and binding was analyzed by GST pull-down assay. […] Cell lysates from Ishikawa cells was immunoprecipitated (IP) with anti-ERá mAb and immunoblotted with anti-DLC1 or ER Abs. […] Cell lysates from MCF-7/TAM-sen or Ishikawa cells were treated with Tam (10^−9M) for 24 h, and IP with anti-ERá mAb and immunoblotted with anti-DLC1 or ER Abs. […] MCF-7/DLC1 cells were treated with or without Dox for 24 h and then treated with E2 (10^−9M) or Tam (10^−8M) for 24 h, and IP with anti-ERá mAb and immunoblotted with anti-DLC1 or ER Abs. FIG. 13G: Characterization of MCF-7 cells expressing T7-DLC1-Ser88A mutant under a tetracycline-inducible promoter. […] MCF-7/DLC1 and MCF-7/DLC1-Ser88A cells were treated with or without Dox for 24 h and cell lysates were IP with anti-ERá mAb and blotted with anti-DLC1, ERá and T7 Abs.
To this end, MCF-7 cells expressing a T7-DLC1 mutant in which Ser88 and amino acid 89 were deleted under a tet-inducible promoter (MCF-7/DLC1-1-87 mutant) were generated (FIG. 13G).

In assay [2] the test system is ZR 75 cells. The assay can be described thus: Boyden chamber migration assay, NIH3T3 conditioned medium. The format is cell-based, human. The conditions noted are these: stable ZR75 clones. How it is done: FIGS. 4A–4E—Effect of DLC1/PIN expression on cell motility. FIG. 4A: expression of DLC1/PIN in a number of normal and breast cancer cells analyzed by western blot analysis. FIG. 4B: Expression of T7-DLC1/PIN in stable clones analyzed by western blot analysis. FIG. 4C: Effect DLC1/PIN expression on the motility. Migratory potential of DLC1/PIN wild type or DLC1/PIN^del88-89 mutant expressing clones was measured by Boyden chamber assay using NIH3T3 conditioned medium as chemoattractant. Migrated cells were recorded by microscopy. Representative data of three replicate experiments is shown. FIG. 4D: ZR75/RFP-DLC1 cells which stably expressing wild type red florescent-tagged DLC1/PIN protein (RFPDLC1/PIN) was incubated with FITC-dextran beads. After twenty minutes, cells were fixed with methanol and stained for endogenous Pak1 (blue), RFPDLC1/PIN (red) and FITC-dextran (green). An inset containing the cytoplasmic region was blown up to visualize the colocalization of Pak1 and DLC1/PIN on dextran beads. Merged images are presented in the upper right panel, and colocalization of Pak1 with DLC1/PIN can be visualized as white vesicles due to colocalization of pixels from Pak1 (blue), DLC1/PIN (red) and FITC dextran (green). FIG. 4E: ZR75/RFP-DLC1/PIN were transfected with a dominant negative mutant of Pak1 K299RLL (a myc-tagged kinase dead and GTPase binding defective construct of Pak1). […]

With `CC/C(=C(\c1ccccc1)c1ccc(OCCN(C)C)cc1)c1ccccc1` [tamoxifen], the DLC1-ER interaction entry in assay [1] (Ishikawa cells, Tam 24 h) is reported as “substantially enhanced”; in assay [1] (MCF-7/DLC1 cells with doxycycline), “modestly, but reproducibly, increased”; in assay [1] (MCF-7/TAM-Sen cells, Tam 24 h), “not”.

With “DLC1/PIN^del 88-89: DLC1/PIN mutant in which Ser88 and amino acid 89 were deleted”, in assay [1] (MCF-7 cells, tet-inducible T7-tagged mutant), the “interaction with ER” value is recorded as “failed to detect any interaction”. In addition, in assay [2], the migratory potential result was “abolished DLC1/PIN mediated increase in the migratory potential”.
